These results are taken from US9290467B2, “Cyclic amides” (Hoffmann-La Roche Inc., priority 2012, dated 2016).

This test has as its target Cathepsin L (Homo sapiens (Human), UniProt P07711). Nature of the test: Cathepsin enzyme inhibition assay (fluorogenic peptide substrate Z-Val-Val-Arg-AMC). The class given is biochemical. Conditions: enzyme 1 nM, substrate 20 μM, pH 6.5. Here is the method: Enzyme activity is measured by observing the increase in fluorescence intensity caused by cleavage of a peptide substrate containing a fluorophore whose emission is quenched in the intact peptide.
Assay buffer: 100 mM potassium phosphate pH 6.5, EDTA-Na 5 mM, Triton X-100 0.001%, DDT 5 mM.
Enzymes (all at 1 nM): human and mouse Cathepsin S, Cat K, Cat B, Cat L
Substrate (20 μM): Z-Val-Val-Arg-AMC, except for Cat K which uses Z-Leu-Arg-AMC (both from Bachem).
AMC=7-Amino-4-Methyl-Coumarin.
Excitation 360 nm, Emission 465 nm.
Enzyme is added to the substance dilutions in 96-well microtitre plates and the reaction is started with substrate. […] IC50 are calculated by standard methods. The results are expressed in μM in the following table.

Chain of Cathepsin L (P07711 114-333): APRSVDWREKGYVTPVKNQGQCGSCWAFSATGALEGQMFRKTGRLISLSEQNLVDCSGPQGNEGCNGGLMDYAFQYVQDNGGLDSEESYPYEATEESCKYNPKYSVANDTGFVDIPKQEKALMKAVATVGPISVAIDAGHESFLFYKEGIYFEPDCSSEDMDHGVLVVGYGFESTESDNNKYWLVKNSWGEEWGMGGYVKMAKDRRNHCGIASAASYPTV

The term IC50 denotes the concentration that inhibits the measured activity by half. Low values mean greater potency, high ones weaker potency. With `N#CC1(NC(=O)[C@@H]2Cc3ccc(c(Cl)c3)OC/C=C/COc3ccc(F)c(F)c3C(=O)N2)CC1` [Example 45, (E)-(S)-19-Chloro-7,8-difluoro-5-oxo-12,17-dioxa-4-aza-tricyclo[16.2.2.0*6,11*]docosa-1(21),6,8,10,14,18(22),19-heptaene-3-carboxylic acid (1-cyano-cyclopropyl)-amide], the half-inhibitory concentration (IC50) turned out to be 4.3 nM.
The figure for `CSc1ccc2c(c1)C(=O)N[C@H](C(=O)NC1(C#N)CC1)Cc1ccc(c(Cl)c1)OC/C=C/CO2` [Example 47, (E)-(S)-19-Chloro-8-methylsulfanyl-5-oxo-12,17-dioxa-4-aza-tricyclo[16.2.2.0*6,11*]docosa-1(21),6,8,10,14,18(22),19-heptaene-3-carboxylic acid (1-cyano-cyclopropyl)-amide] is 1.6 nM; for `N#CC1(NC(=O)[C@@H]2Cc3ccc(c(Cl)c3)OC/C=C/COc3cc(C(F)(F)F)ccc3C(=O)N2)CC1` [Example 20, (E)-(S)-19-Chloro-5-oxo-9-trifluoromethyl-12,17-dioxa-4-aza-tricyclo[16.2.2.0*6,11*]docosa-1(21),6,8,10,14,18(22),19-heptaene-3-carboxylic acid (1-cyano-cyclopropyl)-amide] it is 47.7 nM.
The figure for `N#CC1(NC(=O)[C@@H]2Cc3ccc(c(Cl)c3)OC/C=C/COc3ccccc3C(=O)N2)CC1` [Example 4, (E)-(S)-19-Chloro-5-oxo-12,17-dioxa-4-aza-tricyclo[16.2.2.0*6,11*]docosa-1(21),6(11),7,9,14,18(22),19-heptaene-3-carboxylic acid (1-cyano-cyclopropyl)-amide] is 13.8 nM; for `N#Cc1ccc2c(c1)C(=O)N[C@H](C(=O)NC1(C#N)CC1)Cc1ccc(c(Cl)c1)OCCCCO2` [Example 49, (S)-19-Chloro-8-cyano-5-oxo-12,17-dioxa-4-aza-tricyclo[16.2.2.0*6,11*]docosa-1(21),6,8,10,18(22),19-hexaene-3-carboxylic acid (1-cyano-cyclopropyl)-amide] it is 18.3 nM.
To `N#CC1(NC(=O)[C@@H]2Cc3ccc(c(I)c3)OC/C=C/COc3ccccc3C(=O)N2)CC1` [Example 24, (E)-(S)-19-Iodo-5-oxo-12,17-dioxa-4-aza-tricyclo[16.2.2.*6,11*]docosa-1(21),6,8,10,14,18(22),19-heptaene-3-carboxylic acid (1-cyano-cyclopropyl)-amide] belongs 164 nM.
In turn, `N#CC1(NC(=O)[C@@H]2Cc3ccc(c(Cl)c3)OCCCCOc3ccc(C(F)(F)F)cc3C(=O)N2)CC1` [Example 37, (S)-19-Chloro-5-oxo-8-trifluoromethyl-12,17-dioxa-4-aza-tricyclo[16.2.2.0*6,11*]docosa-1(21),6,8,10,18(22),19-hexaene-3-carboxylic acid (1-cyano-cyclopropyl)-amide] showed an IC50 of 9 nM.
As for `CC(C)(C)OC(=O)N1CC(c2ccc3c(c2)C(=O)N[C@H](C(=O)NC2(C#N)CC2)Cc2ccc(c(Cl)c2)OC/C=C/CO3)C1` [Example 39, 3-[(E)-(S)-19-Chloro-3-(1-cyano-cyclopropylcarbamoyl)-5-oxo-12,17-dioxa-4-aza-tricyclo[16.2.2.0*6,11*]docosa-1(21),6,8,10,14,18(22),19-heptaen-8-yl]-azetidine-1-carboxylic acid tert-butyl ester], inhibition was half-maximal at 26.2 nM (IC50).
The figure for `N#CC1(NC(=O)[C@@H]2Cc3ccc(c(Cl)c3)OCCCCOc3ccc(F)cc3C(=O)N2)CC1` [Example 35, (S)-19-Chloro-8-fluoro-5-oxo-12,17-dioxa-4-aza-tricyclo[16.2.2.0*6,11*]docosa-1(21),6,8,10,18(22),19-hexaene-3-carboxylic acid (1-cyano-cyclopropyl)-amide] is 23 nM; for `N#CC1(NC(=O)[C@@H]2Cc3ccc(c(Cl)c3)OCCCCOc3cc4c(cc3C(=O)N2)CCCC4)CC1` [Example 29, (12S)-22-chloro-N-(1-cyanocyclopropyl)-14-oxo-2,3,4,5,11,12,13,14,16,17,18,19-dodecahydro-7,10-ethenonaphtho[2,3-b][1,12,5]dioxazacyclohexadecine-12-carboxamide] it is 13 nM.
The figure for `N#CC1(NC(=O)[C@@H]2Cc3ccc(c(Cl)c3)OCCCCOc3ccc(C4CNC4)cc3C(=O)N2)CC1` [Example 43, (S)-8-Azetidin-3-yl-19-chloro-5-oxo-12,17-dioxa-4-aza-tricyclo[16.2.2.0*6,11*]docosa-1(21),6,8,10,18(22),19-hexaene-3-carboxylic acid (1-cyano-cyclopropyl)-amide] is 3.1 nM; for `N#CC1(NC(=O)[C@@H]2Cc3ccc(c(Cl)c3)OCCCCOc3ccc(F)c(F)c3C(=O)N2)CC1` [Example 50, (S)-19-Chloro-7,8-difluoro-5-oxo-12,17-dioxa-4-aza-tricyclo[16.2.2.0*6,11*]docosa-1(21),6,8,10,18(22),19-hexaene-3-carboxylic acid (1-cyano-cyclopropyl)-amide] it is 13.5 nM; for `COc1ccc2c(c1)CCCCCOc1ccc(cc1Cl)C[C@@H](C(=O)NC1(C#N)CC1)NC2=O` [Example 22, (S)-19-Chloro-9-methoxy-5-oxo-17-oxa-4-aza-tricyclo[16.2.2.0*6,11*]docosa-1(21),6,8,10,18(22),19-hexaene-3-carboxylic acid (1-cyano-cyclopropyl)-amide] it is 118 nM.
The figure for `N#CC1(NC(=O)[C@@H]2Cc3ccc(c(Cl)c3)OC/C=C/COc3cc(Cl)ccc3C(=O)N2)CC1` [Example 33, (E)-(S)-9,19-Dichloro-5-oxo-12,17-dioxa-4-aza-tricyclo[16.2.2.0*6,11*]docosa-1(21),6,8,10,14,18(22),19-heptaene-3-carboxylic acid (1-cyano-cyclopropyl)-amide] is 73 nM.
Compound `COc1ccc2c(c1)C(=O)N[C@H](C(=O)NC1(C#N)CC1)Cc1ccc(c(Cl)c1)OCCCCO2` [Example 17, (S)-19-Chloro-8-methoxy-5-oxo-12,17-dioxa-4-aza-tricyclo[16.2.2.0*6,11*]docosa-1(21),6,8,10,18(22),19-hexaene-3-carboxylic acid (1-cyano-cyclopropyl)-amide] came in with an IC50 of 10.4 nM.
The figure for `N#CC1(NC(=O)[C@@H]2Cc3ccc(c(I)c3)OCCCCOc3ccccc3C(=O)N2)CC1` [Example 30, (S)-19-Iodo-5-oxo-12,17-dioxa-4-aza-tricyclo[16.2.2.0*6,11*]docosa-1(21),6(11),7,9,18(22),19-hexaene-3-carboxylic acid (1-cyano-cyclopropyl)-amide] is 181 nM; for `N#CC1(NC(=O)[C@@H]2Cc3ccc(c(Cl)c3)OCCCCOc3cc(Cl)ccc3C(=O)N2)CC1` [Example 36, (S)-9,19-Dichloro-5-oxo-12,17-dioxa-4-aza-tricyclo[16.2.2.0*6,11*]docosa-1(21),6,8,10,18(22),19-hexaene-3-carboxylic acid (1-cyano-cyclopropyl)-amide] it is 50 nM.
The figure for `CSc1ccc2c(c1)C(=O)N[C@H](C(=O)NC1(C#N)CC1)Cc1ccc(c(Cl)c1)OCCCCO2` [Example 51, (S)-19-Chloro-8-methylsulfanyl-5-oxo-12,17-dioxa-4-aza-tricyclo[16.2.2.0*6,11*]docosa-1(21),6,8,10,18(22),19-hexaene-3-carboxylic acid (1-cyano-cyclopropyl)-amide] is 1.6 nM; for `N#CC1(NC(=O)[C@@H]2Cc3ccc(c(Cl)c3)OCCCCOc3ccc(Cl)cc3C(=O)N2)CC1` [Example 11, (S)-8,19-Dichloro-5-oxo-12,17-dioxa-4-aza-tricyclo[16.2.2.0*6,11*]docosa-1(21),6,8,10,18(22),19-hexaene-3-carboxylic acid (1-cyano-cyclopropyl)-amide] it is 11.6 nM.
To `N#CC1(NC(=O)[C@@H]2Cc3ccc(c(Cl)c3)OC/C=C/COc3ccc(Cl)cc3C(=O)N2)CC1` [Example 10, (E)-(S)-8,19-Dichloro-5-oxo-12,17-dioxa-4-aza-tricyclo[16.2.2.0*6,11*]docosa-1(21),6,8,10,14,18(22),19-heptaene-3-carboxylic acid (1-cyano-cyclopropyl)-amide] belongs 10.3 nM; to `COc1ccc2c(c1)C(=O)N[C@H](C(=O)NC1(C#N)CC1)Cc1ccc(c(Cl)c1)OC/C=C/CO2` [Example 16, (E)-(S)-19-Chloro-8-methoxy-5-oxo-12,17-dioxa-4-aza-tricyclo[16.2.2.0*6,11*]docosa-1(21),6,8,10,14,18(22),19-heptaene-3-carboxylic acid (1-cyano-cyclopropyl)-amide], 11.4 nM.
Compound `N#CC1(NC(=O)[C@@H]2Cc3ccc(c(Cl)c3)OC/C=C/COc3ccc(Br)cc3C(=O)N2)CC1` [Example 8, (E)-(S)-8-Bromo-19-chloro-5-oxo-12,17-dioxa-4-aza-tricyclo[16.2.2.0*6,11*]docosa-1(21),6,8,10,14,18(22),19-heptaene-3-carboxylic acid (1-cyano-cyclopropyl)-amide] had an IC50 of 24.8 nM.
To `N#CC1(NC(=O)[C@@H]2Cc3ccc(c(Cl)c3)OCCCCOc3ccc(Br)cc3C(=O)N2)CC1` [Example 9, (S)-8-Bromo-19-chloro-5-oxo-12,17-dioxa-4-aza-tricyclo[16.2.2.0%6,11&]docosa-1(21),6,8,10,18(22),19-hexaene-3-carboxylic acid (1-cyano-cyclopropyl)-amide] belongs 10 nM; to `N#CC1(NC(=O)[C@@H]2Cc3ccc(c(Cl)c3)OC/C=C/CCN3C[C@@H](F)CC3C(=O)N2)CC1` (mixture of isomers) [Example 13, (E)-(3S,8S)-18-Chloro-8-fluoro-5-oxo-16-oxa-4,10-diaza-tricyclo[15.2.2.0*6,10*]henicosa-1(20),13,17(21),18-tetraene-3-carboxylic acid (1-cyano-cyclopropyl)-amide], 948 nM.
